Like-named read-outs stand apart in the source and are kept apart here.
How the values were obtained:
[1] = tested on: L1210 mouse leukemia cells; test: Combined effect on L1210 mouse leukemia cells (MTT assay); conditions: MC = 12.5 μg/ml; MD = 25 μg/ml; MZ = 25 μg/ml; overnight
Protocol: The biological activities of the photooxidation products of MC 540 were determined. Preactivated MC 540 is abbreviated as pMC 540. Assays of antitumor activities of the products were carried out according to published standard methods.
Mouse leukemia L1210 cells (1 × 10^6 cells/ml) were treated wit
different combinations of the indicated compounds (isolated from
preactivated merocyanine 540). After overnight incubation the cell kill

8226 (multiple myeloma) = test: Inhibition of cell proliferation, 8226 (MTT assay); format: cell-based; conditions: 24 hr.
Protocol: (§1) Preactivated MC 540 is abbreviated as pMC 540. […] 52: 831-38 (1990); and T. Mosmann, J. Immulog. Methods 65: 55-63 (1983).
(§2) Each cell type (1×10^6 cells/ml; in triplicate) was treated with indicated concentrations of merocil or merodantoin. […] The cytotoxicity in vehicle only (cremophor EL) controls was not detectable at highest dose tested.

[2] = tested on: human Burkitt lymphoma Daudi cells; test: Cytotoxic effects on human Burkitt lymphoma Daudi cells (MTT assay); format: cell-based
Protocol: Human Burkitt Lymphoma Daudi cells (1×10^6 cells/ml) were treated with different concentrations of Merodantoin. After overnight incubation at 37° C., the tumor cells kill was determined by MTT assay.
Human Burkitt Lymphoma Daudi cells (1×10^6 cells/ml) were treated with different concentrations of Merocil. After overnight incubation at 37° C., the tumor cells kill was determined by MTT assay.
Each cell type (1×10^6 cells/ml; in triplicate) was treated with indicated concentrations of Merocil or Merodantoin. After overnight (20 hr.) or 5 day incubation periods, the cell viability was determined by MTT assay and calculated as a percentage of untreated controls.

[3] = tested on: DU 145 (prostate, carcinoma, human); test: Inhibition of cell proliferation, DU 145 (MTT assay); format: cell-based; conditions: for inhibition at 1.56 µg/mL / inhibition at 3.13 µg/mL / inhibition at 6.25 µg/mL / inhibition at 12.5 µg/mL: read-out: % inhibition of cell proliferation
Protocol: as §1
(§3) Each cell type (1×10^6 cells/ml; in triplicate) was treated with indicated concentrations of merocil or merodantoin. After overnight (20 hr.) or 5 day incubation periods, the cell viability was determined by MTT assay and calculated as a percentage of untreated controls. The toxicity in vehicle only (cremophor EL) controls was not detectable at highest dose tested.

[4] = tested on: H.S. Sultan (multiple myeloma); test: Inhibition of cell proliferation, H.S. Sultan (MTT assay); format: cell-based; conditions: 24 hr.
Protocol: as §1, §2

certain tumor cells = test: Inhibition of proliferation of tumor cells (overall conclusion); format: cell-based
Excerpt: as §1

[5] = tested on: JEG-3 (choriocarcinoma, human); test: Inhibition of cell proliferation, JEG-3 (MTT assay); format: cell-based; conditions: for inhibition at 1.56 µg/mL / inhibition at 3.13 µg/mL / inhibition at 6.25 µg/mL / inhibition at 12.5 µg/mL: read-out: % inhibition of cell proliferation
Protocol: as §1, §3

[6] = tested on: C-33A (carcinoma cervix, human); test: Inhibition of cell proliferation, C-33A (MTT assay); format: cell-based; conditions: for inhibition at 1.56 µg/mL: 1.56 μg/ml; for inhibition at 1.56 µg/mL / inhibition at 3.13 µg/mL / inhibition at 6.25 µg/mL / inhibition at 12.5 µg/mL: read-out: % inhibition of cell proliferation; for inhibition at 3.13 µg/mL: 3.13 μg/ml; for inhibition at 6.25 µg/mL: 6.25 μg/ml; for inhibition at 12.5 µg/mL: 12.5 μg/ml; for inhibition at 25 µg/mL: 25.0 μg/ml
Protocol: as §1, §3

U266B1 (myeloma) = test: Inhibition of cell proliferation, U266B1 (MTT assay); format: cell-based; conditions: 24 hr.
Protocol: as §1, §2

[7] = tested on: MS 751 (cervix, carcinoma, human); test: Inhibition of cell proliferation, MS 751 (MTT assay); format: cell-based; conditions: for inhibition at 1.56 µg/mL / inhibition at 3.13 µg/mL / inhibition at 6.25 µg/mL / inhibition at 12.5 µg/mL: read-out: % inhibition of cell proliferation
Protocol: as §1, §3

[8] = tested on: BT-20 (breast, adenocarcinoma); test: Inhibition of cell proliferation, BT-20 (MTT assay); format: cell-based; conditions: Homo sapiens; for inhibition at 1.56 µg/mL: 1.56 μg/ml; for inhibition at 1.56 µg/mL / inhibition at 3.13 µg/mL / inhibition at 6.25 µg/mL / inhibition at 12.5 µg/mL: read-out: % inhibition of cell proliferation; for inhibition at 3.13 µg/mL: 3.13 μg/ml; for inhibition at 6.25 µg/mL: 6.25 μg/ml; for inhibition at 12.5 µg/mL: 12.5 μg/ml; for inhibition at 25 µg/mL: 25.0 μg/ml
Excerpt: Preactivated MC 540 is abbreviated as pMC 540. […] 52: 831-38 (1990); and T. Mosmann, J. Immulog. Methods 65: 55-63 (1983). […]

[9] = tested on: human immunodeficiency virus (HIV-1); test: Inactivation of cell free human immunodeficiency virus (viability of MT-4 target cells, MTT assay); format: cell-based
Protocol: as §1
(§4) Cell free human immunodeficiency virus (HIV-1) was either left untreated or treated with indicated doses of Merocil or Merodantoin for one hour at 37° C. and added to MT-4 target cells. After 4 hour incubation at 37° C., the cells were washed three times and further incubated in drug free fresh growth medium (complete RPMI-1640) at 37° C. for 4 days. On day four, 50% of the culture supernatant was replaced with fresh growth medium to prevent cell death due to possible nutrient depletion. The viability of the cell was determined on day 11 by MTT assay. […] The viability of the MT-4 cells was not affected by Merocil or Merodantoin under the experimental conditions described above.

MT-4 cells = test: Effect on viability of MT-4 cells; format: cell-based; conditions: experimental conditions of Table 8
Protocol: as §4

[10] = 1.56 μg/ml, read-out: % inhibition of cell proliferation
[11] = 3.13 μg/ml, read-out: % inhibition of cell proliferation
[12] = 6.25 μg/ml, read-out: % inhibition of cell proliferation
[13] = 12.5 μg/ml, read-out: % inhibition of cell proliferation

CCCCN1C(=O)C(=O)N(CCCC)C1=S [Merodantoin, N,N'-Dibutyl-2-thio-4,5-imidazolindion]
% Cell Kill [1]: 64%
inhibition at 1.56 µg/mL (8226 (multiple myeloma); [10]): 20%
inhibition at 3.13 µg/mL (8226 (multiple myeloma); [11]): 16%
inhibition at 6.25 µg/mL (8226 (multiple myeloma); [12]): 20%
inhibition at 12.5 µg/mL (8226 (multiple myeloma); [13]): 30%
inhibition at 25 µg/mL (8226 (multiple myeloma); 25.0 μg/ml): 46%
growth inhibition of cultured Daudi lymphoma cells ([2]; 25 μg/ml): virtually complete growth inhibition
cytotoxicity at 1.56 µg/mL ([2]; Homo sapiens, Daudi, 1.56 μg/ml, overnight, 37° C., read-out: % Cell Kill (means ± S.D.)): 2.75 ± 3.2%
cytotoxicity at 3.13 µg/mL ([2]; Homo sapiens, Daudi, 3.13 μg/ml, overnight, 37° C., read-out: % Cell Kill (means ± S.D.)): 6.25 ± 2.99%
cytotoxicity at 6.25 µg/mL ([2]; Homo sapiens, Daudi, 6.25 μg/ml, overnight, 37° C., read-out: % Cell Kill (means ± S.D.)): 9.75 ± 1.71%
cytotoxicity at 12.5 µg/mL ([2]; Homo sapiens, Daudi, 12.50 μg/ml, overnight, 37° C., read-out: % Cell Kill (means ± S.D.)): 42 ± 8.68%
cytotoxicity at 25 µg/mL ([2]; Homo sapiens, Daudi, 25.00 μg/ml, overnight, 37° C., read-out: % Cell Kill (means ± S.D.)): 100%
inhibition at 1.56 µg/mL ([3]; DU-145, 1.56 μg/ml, 20 hr.): 0%
inhibition at 3.13 µg/mL ([3]; DU-145, 3.13 μg/ml, 20 hr.): 1%
inhibition at 6.25 µg/mL ([3]; DU-145, 6.25 μg/ml, 20 hr.): 8%
inhibition at 12.5 µg/mL ([3]; DU-145, 12.5 μg/ml, 20 hr.): 9%
inhibition at 25 µg/mL ([3]; DU-145, 25.0 μg/ml, 20 hr.): 11%
inhibition at 1.56 µg/mL ([3]; DU-145, 120 h, 1.56 μg/ml, 5 days): 54%
inhibition at 3.13 µg/mL ([3]; DU-145, 120 h, 3.13 μg/ml, 5 days): 85%
inhibition at 6.25 µg/mL ([3]; DU-145, 120 h, 6.25 μg/ml, 5 days): 99%
inhibition at 12.5 µg/mL ([3]; DU-145, 120 h, 12.5 μg/ml, 5 days): 100%
inhibition at 25 µg/mL ([3]; DU-145, 120 h, 25.0 μg/ml, 5 days): 100%
inhibition at 1.56 µg/mL [4, 10]: 18%
inhibition at 3.13 µg/mL [4, 11]: 34%
inhibition at 6.25 µg/mL [4, 12]: 54%
inhibition at 12.5 µg/mL [4, 13]: 77%
inhibition at 25 µg/mL ([4]; 25.0 μg/ml): 87%
inhibiting the proliferation of certain tumor cells (certain tumor cells): effective
inhibition at 1.56 µg/mL ([5]; JEG-3, 1.56 μg/ml, 20 hr.): 15%
inhibition at 3.13 µg/mL ([5]; JEG-3, 3.13 μg/ml, 20 hr.): 53%
inhibition at 6.25 µg/mL ([5]; JEG-3, 6.25 μg/ml, 20 hr.): 88%
inhibition at 12.5 µg/mL ([5]; JEG-3, 12.5 μg/ml, 20 hr.): 100%
inhibition at 25 µg/mL ([5]; JEG-3, 25.0 μg/ml, 20 hr.): 100%
inhibition at 1.56 µg/mL ([5]; JEG-3, 120 h, 1.56 μg/ml, 5 days): 18%
inhibition at 3.13 µg/mL ([5]; JEG-3, 120 h, 3.13 μg/ml, 5 days): 38%
inhibition at 6.25 µg/mL ([5]; JEG-3, 120 h, 6.25 μg/ml, 5 days): 91%
inhibition at 12.5 µg/mL ([5]; JEG-3, 120 h, 12.5 μg/ml, 5 days): 100%
inhibition at 25 µg/mL ([5]; JEG-3, 120 h, 25.0 μg/ml, 5 days): 100%
inhibition at 1.56 µg/mL ([6]; 20 hr.): 16%
inhibition at 3.13 µg/mL ([6]; 20 hr.): 29%
inhibition at 6.25 µg/mL ([6]; 20 hr.): 36%
inhibition at 12.5 µg/mL ([6]; 20 hr.): 49%
inhibition at 25 µg/mL ([6]; 20 hr.): 56%
inhibition at 1.56 µg/mL ([6]; 120 h, 5 days): 11%
inhibition at 3.13 µg/mL ([6]; 120 h, 5 days): 34%
inhibition at 6.25 µg/mL ([6]; 120 h, 5 days): 86%
inhibition at 12.5 µg/mL ([6]; 120 h, 5 days): 63%
inhibition at 25 µg/mL ([6]; 120 h, 5 days): 91%
inhibition at 1.56 µg/mL (U266B1 (myeloma); [10]): 8%
inhibition at 3.13 µg/mL (U266B1 (myeloma); [11]): 10%
inhibition at 6.25 µg/mL (U266B1 (myeloma); [12]): 10%
inhibition at 12.5 µg/mL (U266B1 (myeloma); [13]): 12%
inhibition at 25 µg/mL (U266B1 (myeloma); 25.0 μg/ml): 12%
inhibition at 1.56 µg/mL ([7]; MS751, 1.56 μg/ml, 20 hr.): 8%
inhibition at 3.13 µg/mL ([7]; MS751, 3.13 μg/ml, 20 hr.): 24%
inhibition at 6.25 µg/mL ([7]; MS751, 6.25 μg/ml, 20 hr.): 20%
inhibition at 12.5 µg/mL ([7]; MS751, 12.5 μg/ml, 20 hr.): 28%
inhibition at 25 µg/mL ([7]; MS751, 25.0 μg/ml, 20 hr.): 41%
inhibition at 1.56 µg/mL ([7]; MS751, 120 h, 1.56 μg/ml, 5 days): 11%
inhibition at 3.13 µg/mL ([7]; MS751, 120 h, 3.13 μg/ml, 5 days): 23%
inhibition at 6.25 µg/mL ([7]; MS751, 120 h, 6.25 μg/ml, 5 days): 66%
inhibition at 12.5 µg/mL ([7]; MS751, 120 h, 12.5 μg/ml, 5 days): 90%
inhibition at 25 µg/mL ([7]; MS751, 120 h, 25.0 μg/ml, 5 days): 100%
inhibition at 1.56 µg/mL ([8]; BT-20, 96 h, 4 days): 19%
inhibition at 3.13 µg/mL ([8]; BT-20, 96 h, 4 days): 52%
inhibition at 6.25 µg/mL ([8]; BT-20, 96 h, 4 days): 20%
inhibition at 12.5 µg/mL ([8]; BT-20, 96 h, 4 days): 12%
inhibition at 25 µg/mL ([8]; BT-20, 96 h, 4 days): 73%
inhibition at 1.56 µg/mL ([8]; BT-20, 48 hr.): 0%
inhibition at 3.13 µg/mL ([8]; BT-20, 48 hr.): 0%
inhibition at 6.25 µg/mL ([8]; BT-20, 48 hr.): 0%
inhibition at 12.5 µg/mL ([8]; BT-20, 48 hr.): 8%
inhibition at 25 µg/mL ([8]; BT-20, 48 hr.): 26%
inactivation of cell free HIV ([9]; 75 μg/ml dose): virtually complete inactivation of the virus
viability at 25 µg/mL ([9]; Human immunodeficiency virus 1, MT4, 264 h, MT-4 cells + HIV treated with 25 μg/ml, one hour 37° C., day 11, untreated HIV-1 36.75): 73.5%
viability at 50 µg/mL ([9]; Human immunodeficiency virus 1, MT4, 264 h, MT-4 cells + HIV treated with 50 μg/ml, one hour 37° C., day 11, untreated HIV-1 36.75): 94.3%
viability at 75 µg/mL ([9]; Human immunodeficiency virus 1, MT4, 264 h, MT-4 cells + HIV treated with 75 μg/ml, one hour 37° C., day 11, untreated HIV-1 36.75): 102%
inactivating human immunodeficiency virus (HIV-1) ([9]; conclusion): effective
viability of the MT-4 cells (MT-4 cells): not affected
